According to patent publication US20250134869A1, “Pyrrolo[2,3-d]pyrimidinyl, Pyrrolo[2,3-b]pyrazinyl and Pyrrolo[2,3-d]pyridinyl Acryla-mides” (Pfizer Inc, priority 2021, published 2025):
Read-outs that look alike come from different tables or passages of the source.

Biological target: JAK3 enzyme (Homo sapiens (Human), UniProt P52333)
Assay: JAK Caliper Enzyme Assay at 4 μM or 1 mM ATP
Type: biochemical
[1] = read-out: JAK3 (4 μM ATP) IC50, 4 μM ATP
[2] = read-out: JAK3 (1 mM ATP) IC50, 1 mM ATP

Chain of JAK3 enzyme (P52333 whole entry, species assumed): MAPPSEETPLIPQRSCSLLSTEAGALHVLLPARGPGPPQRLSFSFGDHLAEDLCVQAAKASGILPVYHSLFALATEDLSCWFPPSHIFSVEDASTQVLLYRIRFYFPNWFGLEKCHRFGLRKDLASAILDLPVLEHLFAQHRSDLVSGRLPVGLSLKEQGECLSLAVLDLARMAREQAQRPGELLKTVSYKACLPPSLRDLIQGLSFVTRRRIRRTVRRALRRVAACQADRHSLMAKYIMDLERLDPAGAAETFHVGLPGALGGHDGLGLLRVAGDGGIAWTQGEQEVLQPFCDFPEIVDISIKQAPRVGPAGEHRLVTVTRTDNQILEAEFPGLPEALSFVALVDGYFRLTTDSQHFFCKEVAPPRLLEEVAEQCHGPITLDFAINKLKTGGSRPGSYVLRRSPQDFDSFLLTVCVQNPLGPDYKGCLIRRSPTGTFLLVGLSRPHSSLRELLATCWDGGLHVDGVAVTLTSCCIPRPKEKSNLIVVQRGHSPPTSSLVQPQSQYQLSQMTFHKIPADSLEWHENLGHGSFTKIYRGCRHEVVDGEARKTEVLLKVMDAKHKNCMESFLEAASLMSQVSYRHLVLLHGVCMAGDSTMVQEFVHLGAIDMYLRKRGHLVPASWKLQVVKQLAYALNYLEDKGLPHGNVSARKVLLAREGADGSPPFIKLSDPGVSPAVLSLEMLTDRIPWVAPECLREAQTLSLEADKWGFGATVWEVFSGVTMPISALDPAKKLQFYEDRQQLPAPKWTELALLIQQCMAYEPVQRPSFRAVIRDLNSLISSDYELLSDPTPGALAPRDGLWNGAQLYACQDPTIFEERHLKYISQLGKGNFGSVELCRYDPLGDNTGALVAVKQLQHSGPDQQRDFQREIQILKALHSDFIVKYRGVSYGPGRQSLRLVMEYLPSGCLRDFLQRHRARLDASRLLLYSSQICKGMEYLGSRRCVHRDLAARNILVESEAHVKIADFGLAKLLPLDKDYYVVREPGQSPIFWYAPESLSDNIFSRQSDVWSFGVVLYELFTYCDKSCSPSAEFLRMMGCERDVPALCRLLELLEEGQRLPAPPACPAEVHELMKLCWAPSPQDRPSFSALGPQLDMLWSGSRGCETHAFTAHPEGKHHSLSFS

IC50 [1] | IC50 [2] | SMILES
1.5 nM | 138 nM | C=CC(=O)N1CC[C@@H](CNc2cnc3[nH]cc(C(=O)NC(C)C)c3n2)C1 [Example 191, 2-({[(3S)-1-acryloylpyrrolidin-3-yl]methyl}amino)-N-(propan-2-yl)-5H-pyrrolo[2,3-b]pyrazine-7-carboxamide]
272 nM |  | C=CC(=O)NC1CN(c2cnc3[nH]ccc3n2)C1 [Example 192, N-[1-(5H-pyrrolo[2,3-b]pyrazin-2-yl)azetidin-3-yl]prop-2-enamide]
29 nM | 2290 nM | C=CC(=O)N1CCC(CNc2cnc3[nH]cc(C(=O)NC(C)C)c3n2)CC1 [Example 193, 2-{[(1-acryloylpiperidin-4-yl)methyl]amino}-N-(propan-2-yl)-5H-pyrrolo[2,3-b]pyrazine-7-carboxamide]
0.3 nM | 30.6 nM | C=CC(=O)N1CC[C@@H](Nc2cnc3[nH]cc(C(=O)NC(C)C)c3n2)[C@H](O)C1 [Example 196, 2-{[(3R,4R)-1-acryloyl-3-hydroxypiperidin-4-yl]amino}-N-(propan-2-yl)-5H-pyrrolo[2,3-b]pyrazine-7-carboxamide]
3490 nM |  | C=CC(=O)NC[C@@]12C[C@@H]1CN(c1cnc3[nH]ccc3n1)C2 [Example 197, N-{[(1R,5S)-3-(5H-pyrrolo[2,3-b]pyrazin-2-yl)-3-azabicyclo[3.1.0]hex-1-yl]methyl}prop-2-enamide]
1 nM | 77.6 nM | C=CC(=O)N[C@H]1C[C@H](Nc2cnc3[nH]cc(C(=O)NC(C)C)c3n2)C1 [Example 198, 2-{[trans-3-(acryloylamino)cyclobutyl]amino}-N-(propan-2-yl)-5H-pyrrolo[2,3-b]pyrazine-7-carboxamide]
0.8 nM | 88.9 nM | C=CC(=O)N1CCC(Nc2cnc3[nH]cc(-c4ccncc4F)c3n2)CC1 [Example 200, 1-(4-{[7-(3-fluoropyridin-4-yl)-5H-pyrrolo[2,3-b]pyrazin-2-yl]amino}piperidin-1-yl)prop-2-en-1-one]
0.5 nM | 28 nM | C=CC(=O)N1CCC(Nc2cnc3[nH]cc(-c4ccnc(C)c4)c3n2)CC1 [Example 201, 1-(4-{[7-(2-methylpyridin-4-yl)-5H-pyrrolo[2,3-b]pyrazin-2-yl]amino}piperidin-1-yl)prop-2-en-1-one]
0.9 nM | 99.1 nM | C=CC(=O)N1CCC(Nc2cnc3[nH]cc(-c4cncnc4)c3n2)CC1 [Example 202, 1-(4-{[7-(pyrimidin-5-yl)-5H-pyrrolo[2,3-b]pyrazin-2-yl]amino}piperidin-1-yl)prop-2-en-1-one]
2 nM | 148 nM | C=CC(=O)N1CCC(Nc2cnc3[nH]cc(-c4ccc(S(C)(=O)=O)cc4)c3n2)CC1 [Example 203, 1-[4-({7-[4-(methylsulfonyl)phenyl]-5H-pyrrolo[2,3-b]pyrazin-2-yl}amino)piperidin-1-yl]prop-2-en-1-one]
0.5 nM | 49.3 nM | C=CC(=O)N1CCC(Nc2cnc3[nH]cc(-c4cccc(C(=O)NC)c4)c3n2)CC1 [Example 204, 3-{2-[(1-acryloylpiperidin-4-yl)amino]-5H-pyrrolo[2,3-b]pyrazin-7-yl}-N-methylbenzamide]
0.5 nM | 14.8 nM | C=CC(=O)N1CCC(Nc2cnc3[nH]cc(-c4cccnc4)c3n2)CC1 [Example 205, 1-(4-{[7-(pyridin-3-yl)-5H-pyrrolo[2,3-b]pyrazin-2-yl]amino}piperidin-1-yl)prop-2-en-1-one]

Continued, molecule first:

SMILES | IC50 [1] | IC50 [2]
C=CC(=O)N1Cc2ncn(C)c2C(Nc2ncnc3[nH]ccc23)C1 (stereo not drawn) [Example 166, 1-[1-Methyl-7-(7H-pyrrolo[2,3-d]pyrimidin-4-ylamino)-1,4,6,7-tetrahydro-5H-imidazo[4,5-c]pyridin-5-yl]prop-2-en-1-one] | 370 nM | > 10000 nM
C=CC(=O)NC1CCN(c2cnc3[nH]ccc3n2)C1 (stereo not drawn) [Example 167, N-[1-(5H-pyrrolo[2,3-b]pyrazin-2-yl)pyrrolidin-3-yl]prop-2-enamide] | 2410 nM | 
C=CC(=O)N(C)C1CCN(c2cnc3[nH]cc(C(=O)NC(C)C)c3n2)CC1 [Example 169, 2-{4-[acryloyl(methyl)amino]piperidin-1-yl}-N-(propan-2-yl)-5H-pyrrolo[2,3-b]pyrazine-7-carboxamide] | 42.8 nM | 4730 nM
C=CC(=O)N1CC[C@@H]2CN(c3cnc4[nH]cc(C(=O)NC(C)C)c4n3)C[C@@H]21 [Example 170, 2-[(3aR,6aR)-1-acryloylhexahydropyrrolo[3,4-b]pyrrol-5(1H)-yl]-N-(propan-2-yl)-5H-pyrrolo[2,3-b]pyrazine-7-carboxamide] | 3.3 nM | 392 nM
C=CC(=O)N1CC[C@H](Nc2cnc3[nH]cc(C(=O)NC(C)C)c3n2)C1 [Example 171, 2-{[(3S)-1-acryloylpyrrolidin-3-yl]amino}-N-(propan-2-yl)-5H-pyrrolo[2,3-b]pyrazine-7-carboxamide] | 0.4 nM | 32.7 nM
C=CC(=O)NC1CN(c2cnc3[nH]cc(C(=O)NC(C)C)c3n2)C1 [Example 173, 2-[3-(acryloylamino)azetidin-1-yl]-N-(propan-2-yl)-5H-pyrrolo[2,3-b]pyrazine-7-carboxamide] | 8.1 nM | 692 nM
C=CC(=O)N1CCN(c2cnc3[nH]cc(C(=O)NC(C)C)c3n2)CC1 [Example 174, 2-(4-acryloylpiperazin-1-yl)-N-(propan-2-yl)-5H-pyrrolo[2,3-b]pyrazine-7-carboxamide] | 0.4 nM | 34.8 nM
C=CC(=O)N1CC2(C1)CN(c1cnc3[nH]ccc3n1)C2 [Example 175, 1-[6-(5H-pyrrolo[2,3-b]pyrazin-2-yl)-2,6-diazaspiro[3.3]hept-2-yl]prop-2-en-1-one] | 1610 nM | 
C=CC(=O)N1CCC(Nc2cnc3[nH]ccc3n2)CC1 [Example 176, 1-[4-(5H-pyrrolo[2,3-b]pyrazin-2-ylamino)piperidin-1-yl]prop-2-en-1-one] | 7.2 nM | 910 nM
C=CC(=O)N[C@H]1CC[C@@H](Nc2cnc3[nH]cc(C(=O)NC(C)C)c3n2)CC1 [Example 182, 2-{[cis-4-(acryloylamino)cyclohexyl]amino}-N-(propan-2-yl)-5H-pyrrolo[2,3-b]pyrazine-7-carboxamide] | 11.4 nM | 975 nM
C=CC(=O)NC[C@@]12C[C@@H]1CN(c1cnc3[nH]cc(C(=O)NC(C)C)c3n1)C2 [Example 183, 2-{(1R,5S)-1-[(acryloylamino)methyl]-3-azabicyclo[3.1.0]hex-3-yl}-N-(propan-2-yl)-5H-pyrrolo[2,3-b]pyrazine-7-carboxamide] | 9.6 nM | 794 nM
C=CC(=O)N1CCCN(c2cnc3[nH]cc(C(=O)NC(C)C)c3n2)CC1 [Example 185, 2-(4-acryloyl-1,4-diazepan-1-yl)-N-(propan-2-yl)-5H-pyrrolo[2,3-b]pyrazine-7-carboxamide] | 20.4 nM | 1460 nM
C=CC(=O)N(C)C1CN(c2cnc3[nH]cc(C(=O)NC(C)C)c3n2)C1 [Example 187, 2-{3-[acryloyl(methyl)amino]azetidin-1-yl}-N-(propan-2-yl)-5H-pyrrolo[2,3-b]pyrazine-7-carboxamide] | 0.6 nM | 27.2 nM
C=CC(=O)N1CC(Nc2cnc3[nH]cc(C(=O)NC(C)C)c3n2)C1 [Example 188, 2-[(1-acryloylazetidin-3-yl)amino]-N-(propan-2-yl)-5H-pyrrolo[2,3-b]pyrazine-7-carboxamide] | 0.3 nM | 8.8 nM
